Legend:
BxPC-3 cells = experiment: Scratch wound-healing assay, BxPC-3; format: cell-based, human; conditions: BxPC-3, 8 h, 4 × IC50, untreated = 100% wound closure
Experimental: Cell migration was assessed using a wound-healing assay, as described previously. A total of 5 × 10^4 cells/well were seeded in a 96-well plate, to form a confluent monolayer. Scratches were created in confluent cell layers using the sterile scratch tool. The detached cells following scratch induction were removed and new medium was added to the wells. Cells were next treated with compounds 3b and 5b at a concentration of 4 × IC50. Cells growing in a complete medium were maintained at 37 °C with a supply of 5% CO2/95% air atmosphere and 100% relative humidity. The progress of wound closure was observed and documented at various time points (0th, 4th, 8th, 20th, and 24th h) using phase-contrast microscopy. Pictures of the plates were taken using the Universal Grab 6.3 software (DCILabs) from a computer connected to a Leica microscope with a JAI TMC-1327 camera.
The percentage of migration was calculated using the following equation:%Migration = (Width of the wound at T = 0 − Width of the wound at T = X)/(Width of the wound at T = 0) × 100

CDK1 = CDK1 ELISA in Suit-2; format: cell-based, human; conditions: Suit-2, 10 µM, 24 h, vs DMSO control, p < 0.01
Experimental: The expression of CDK1 was detected and quantified using an Enzyme-Linked Immunosorbent Assay (ELISA, Human cyclin-dependent kinase 1 (CDK1) ELISA Kit, Catalog Number: MBS707090) according to the manufacturer’s protocol and our previous studies. Volumes of 100 µL of the standard and the sample were added for each well, and the plates were incubated for 2 h at 37 °C. Then, the liquid was removed, and 100 µL of biotin-antibody was added to each well; the plates were then incubated for 1 h at 37 °C. The medium was removed, and the plates were washed with wash buffer (200 µL). Subsequently, 100 µL of HRP-avidin was added to each well, and the plates were incubated for 1 h at 37 °C. The washing process was repeated five times. At the end, 90 µL of TMB substrate was added to each well, and the plates were incubated for 30 min at 37 °C in the dark. Finally, 50 µL of stop solution was added to each well. The optical density of each well was determined using a microplate reader set to 450 nm.

melting point: 239 °C
SMILES: Cn1cc(-c2nnc(-c3cn(C)c4ncccc34)o2)c2ccccc21 [3b, 1-methyl-3-[5-(1-methyl-1H-indol-3-yl)-1,3,4-oxadiazol-2-yl]-7-azaindole]
percentage of cells migrating (BxPC-3 cells): 39% | CDK1 expression by ELISA (CDK1): reduction in CDK1 expression

— publication PMC10381170, “1,3,4-Oxadiazole and 1,3,4-Thiadiazole Nortopsentin Derivatives against Pancreatic Ductal Adenocarcinoma: Synthesis, Cytotoxic Activity, and Inhibition of CDK1” (Marine Drugs, 2023)
